Test results as given in ChEMBL document CHEMBL1201862, “PubChem BioAssay data set” (2004).
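The compound was tested at five concentrations on cells cultured in 96-well plates, with a 48-hour exposure period. Here, GI50 denotes the concentration required for 50% inhibition of growth.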 Activity calls are given as the source filed them. Rule as the data show it: active = GI50 up to about 1.1 µM and inactive = higher.

What was measured:
Assay in all cases: growth of human tumour cells (NCI), 48 h
A498 = tested on: A498
CAKI-1 = tested on: CAKI-1
COLO 205 = tested on: COLO 205
DU-145 = tested on: DU-145
HL-60 = tested on: HL-60
HOP-92 = tested on: HOP-92
KM12 = tested on: KM12
LOX IMVI = tested on: LOX IMVI
MDA-MB-435 = tested on: MDA-MB-435
NCI-H226 = tested on: NCI-H226
OVCAR-4 = tested on: OVCAR-4
OVCAR-5 = tested on: OVCAR-5
OVCAR-8 = tested on: OVCAR-8
SK-MEL-5 = tested on: SK-MEL-5
SK-OV-3 = tested on: SK-OV-3
SN12C = tested on: SN12C
SNB-19 = tested on: SNB-19
SNB-75 = tested on: SNB-75
HCC 2998 = tested on: HCC 2998

SMILES | GI50 (A498) | GI50 (CAKI-1) | GI50 (COLO 205) | GI50 (DU-145) | GI50 (HL-60) | GI50 (HOP-92) | GI50 (KM12) | GI50 (LOX IMVI) | GI50 (MDA-MB-435) | GI50 (NCI-H226) | GI50 (OVCAR-4) | GI50 (OVCAR-5) | GI50 (OVCAR-8) | GI50 (SK-MEL-5) | GI50 (SK-OV-3) | GI50 (SN12C) | GI50 (SNB-19) | GI50 (SNB-75) | GI50 (HCC 2998)
C(CCCCc1nnc(N2CCOCC2)o1)CCCc1nnc(N2CCOCC2)o1 | > 100 µM (inactive) | > 100 µM (inactive) | > 100 µM (inactive) | > 100 µM (inactive) | > 100 µM (inactive) | > 100 µM (inactive) | > 100 µM (inactive) | > 100 µM (inactive) | > 100 µM (inactive) | > 100 µM (inactive) | > 100 µM (inactive) | > 100 µM (inactive) | > 100 µM (inactive) | > 100 µM (inactive) | > 100 µM (inactive) | > 100 µM (inactive) | > 100 µM (inactive) | > 100 µM (inactive) | 
O=C(Nc1sccc1S(=O)(=O)c1ccc(Cl)cc1)c1ccccc1 | > 100 µM (inactive) | > 100 µM (inactive) | > 100 µM (inactive) | > 100 µM (inactive) | > 100 µM (inactive) | > 100 µM (inactive) | > 100 µM (inactive) | > 100 µM (inactive) | > 100 µM (inactive) | > 100 µM (inactive) | 45 µM (inactive) | > 100 µM (inactive) | > 100 µM (inactive) | > 100 µM (inactive) | > 100 µM (inactive) | > 100 µM (inactive) | > 100 µM (inactive) | 98.6 µM (inactive) | 
CCOC(=O)c1nc2ccc(C(F)(F)F)cc2nc1Nc1ccc(F)cc1 | > 100 µM (inactive) | > 100 µM (inactive) | > 100 µM (inactive) | > 100 µM (inactive) | > 100 µM (inactive) | 19 µM (inactive) | > 100 µM (inactive) | > 100 µM (inactive) | > 100 µM (inactive) |  | > 100 µM (inactive) | > 100 µM (inactive) | 47.6 µM (inactive) | > 10 µM (inactive) | > 100 µM (inactive) | > 100 µM (inactive) | 43.9 µM (inactive) | 32.1 µM (inactive) | 
COc1ccc(/C=C(/C#N)C(N)=O)c(OC)c1 | 10.8 µM (inactive) | > 100 µM (inactive) | > 100 µM (inactive) | > 100 µM (inactive) | 34 µM (inactive) | 36.4 µM (inactive) | > 100 µM (inactive) | > 100 µM (inactive) | 23.5 µM (inactive) | > 100 µM (inactive) | > 100 µM (inactive) | > 100 µM (inactive) | > 100 µM (inactive) | 50.9 µM (inactive) | > 100 µM (inactive) | > 100 µM (inactive) | > 100 µM (inactive) | 72.1 µM (inactive) | 
CC(SC(=S)N1CCCC1)C(=O)Nc1nnc(-c2ccc(Cl)cc2)o1 (stereo not given) | 34 µM (inactive) |  | 37.6 µM (inactive) | 44.2 µM (inactive) | < 0.01 µM (active) | 65.8 µM (inactive) |  | 18.7 µM (inactive) | 36.1 µM (inactive) | 40.3 µM (inactive) | 35.5 µM (inactive) | 33.2 µM (inactive) | 40.1 µM (inactive) | 29.5 µM (inactive) | 52.7 µM (inactive) | 17.7 µM (inactive) | 35.6 µM (inactive) | 45.9 µM (inactive) | 57.4 µM (inactive)
COc1ccc(/C=C2\N=C(c3ccccc3)OC2=O)cc1OC(C)=O | > 100 µM (inactive) |  | > 100 µM (inactive) | > 100 µM (inactive) | 41.1 µM (inactive) | 54.1 µM (inactive) |  | 51.3 µM (inactive) | 51.8 µM (inactive) | > 100 µM (inactive) | 63.1 µM (inactive) | > 100 µM (inactive) | 50.4 µM (inactive) | 63 µM (inactive) | > 100 µM (inactive) | > 100 µM (inactive) | > 100 µM (inactive) | 52.5 µM (inactive) | 93.5 µM (inactive)
